Results on three compounds are retold here after US4406888A, “Aqueous micellar solutions of levonantradol and N-methyllevonantradol and lyophilic forms thereof for reconstitution” (Pfizer Inc., priority 1981, dated 1983).

Structures can show the parent of a compound that is named as a salt.

The nature of data set [1]: Water solubility in micellar solutions of Polysorbate 80 USP. Conditions: for Solubility: 25° C., pH 5.0, based on 88.8% activity. The data set is classed as physicochemical. The method, then:
This temperature dependence of water solubilty of active ingredient is overcome by the use of sufficient concentration of amphiphile above the cmc such that the solubility of active ingredient is […] at said lowest temperature. The water solubility of active ingredients increases with increasing concentration above the cmc as is shown below for levonantradol in micellar solutions of Polysorbate 80 USP at pH 5.0 and 25° C.

Data set [2] in a line: Stability of the active ingredient upon storage (general statement). It counts as physicochemical. Conditions: particularly in solution.
For data set [3] the following is noted: accelerated stability studies, at least nine weeks, 37° C.
Description: The procedure comprises dissolving the Polysorbate 80 USP in about 60% of the required water (previously degassed to remove dissolved air) at room temperature. […] The pharmaceutical necessities; i.e., mannitol, sodium citrate and sodium metabisulfite were then added together with about 20-25% of the remaining volume of water required. The pH was adjusted to 5.5 by addition of hydrochloric acid (10%) and the balance of water then added. The resulting formulation was made sterile by filtration and stored in amber vials sealed under a nitrogen atmosphere.
The samples are analyzed for activity by a HPLC method using a Chromegabond C-8 column (silica silylated with octyltrichlorosilane, available from E. S. Industries, 8 South Maple Avenue, Marlton, N.J. 08053). The column is 4.6 mm I.D.×30 cm.; the mobile phase is 60% acetonitrile-40% phosphate buffer (0.05 M, pH 6.3) and the flow rate is 2 ml. per minute. Detection is by UV at 210 nm.

With `CC(=O)Oc1cc(O[C@H](C)CCCc2ccccc2)cc2c1[C@@H]1C[C@H](O)CC[C@H]1[C@H](C)N2` [Levonantradol, [6S-[3S*,6-alpha,6a-alpha,9-alpha,10a-beta]]-5,6,6a,7,8,9,10,10a-octahydro-6-methyl-3-(1-methyl-4-phenylbutoxy)-1,9-phenanthridinediol 1-acetate, hydrochloride], in data set [1] (with decreasing temperature), the water solubility entry is given as “reduced water solubility with decreasing temperature”. The stability upon storage entry in data set [2] is recorded as “subject to decomposition upon storage”. Further, the “stability in micellar solutions” value in data set [3] is on record as “completely stable”.
In the case of `CC(=O)Oc1cc(O[C@H](C)CCCc2ccccc2)cc2c1[C@@H]1C[C@H](O)CC[C@H]1[C@H](C)N2` [Levonantradol.HC1, [6S-[3S*,6-alpha,6a-alpha,9-alpha,10a-beta]]-5,6,6a,7,8,9,10,10a-octahydro-6-methyl-3-(1-methyl-4-phenylbutoxy)-1,9-phenanthridinediol 1-acetate, hydrochloride], the Solubility (in general, the concentration that dissolves in the medium under given conditions) came out at 2.2 µg/mL in data set [1] (0.1% (w/v) Polysorbate 80 USP); 67 µg/mL in data set [1] (0.2% (w/v) Polysorbate 80 USP); 130 µg/mL in data set [1] (0.3% (w/v) Polysorbate 80 USP); 290 µg/mL in data set [1] (0.4% (w/v) Polysorbate 80 USP); 430 µg/mL in data set [1] (0.5% (w/v) Polysorbate 80 USP); 880 µg/mL in data set [1] (0.8% (w/v) Polysorbate 80 USP). In addition, the Solubility is 1230 µg/mL in data set [1] (1.0% (w/v) Polysorbate 80 USP); 2040 µg/mL in data set [1] (1.5% (w/v) Polysorbate 80 USP); 2850 µg/mL in data set [1] (2.0% (w/v) Polysorbate 80 USP); 3810 µg/mL in data set [1] (2.5% (w/v) Polysorbate 80 USP); 4440 µg/mL in data set [1] (3.0% (w/v) Polysorbate 80 USP); 5600 µg/mL in data set [1] (3.5% (w/v) Polysorbate 80 USP). Further, the Solubility in data set [1] (4.0% (w/v) Polysorbate 80 USP) was 6300 µg/mL; in data set [1] (4.5% (w/v) Polysorbate 80 USP), 6990 µg/mL; in data set [1] (5.0% (w/v) Polysorbate 80 USP) it was 7550 µg/mL; in data set [1] (7.0% (w/v) Polysorbate 80 USP) it was 11280 µg/mL. Moreover, the water solubility entry in data set [1] (presence of a relatively low concentration of Polysorbate 80) is listed as “markedly increased”.
Regarding `CC(=O)Oc1cc(O[C@H](C)CCCc2ccccc2)cc2c1[C@@H]1C[C@H](O)CC[C@H]1[C@H](C)N2C` [N-methyllevonantradol], the water solubility result in data set [1] (with decreasing temperature) is on record as “reduced water solubility with decreasing temperature”. Also, in data set [2], the stability upon storage result is reported as “subject to decomposition upon storage”.
